Read-outs that look alike come from different tables or passages of the source.

In series [1] the test system is flavivirus. Description: Difference in concentrations for exhibiting cell toxicity and drug efficacy (therapeutic window). The text has this:
As one of action mechanisms of the anti-dengue virus activity of lucidone, an increase in HO-1 in cells is known.

In series [2] the test system is dengue virus type-1 Mochizuki strain (DENV1). Description: Inhibitory effect on dengue virus type-1 replication in Vero cells. The series is classed as cell-based. The protocol:
(1) One day before infection (Day 0), Vero cells were seeded in a 24-well plate and incubated at 37° C. and 5% CO2. A culture solution was MEM+10% fetal bovine serum+10 mM non-essential amino acid+1000 U/ml penicillin+100 μg/ml streptomycin. In an experiment in which the treatment with the agent was performed before infection, the agent to be examined was added to the culture solution at this point. In all experiments, 5-aminolevulinic acid hydrochloride was used as 5-ALA, sodium ferrous citrate (SFC) was used as an iron-containing compound, 300 μM ribavirin or lucidone of various concentrations was used as a positive control, and water was used as a negative control. […] After the viruses were adsorbed to the cells for 1 hour, the cells were rinsed with phosphate-buffered saline (PBS) to completely remove the inoculation liquid. A maintenance culture solution (MEM+1% fetal bovine serum+10 mM non-essential amino acid+1000 U/ml penicillin+100 μg/ml streptomycin+1 mM HEPES) in a volume of 1 ml was added to the plate, and the cells were cultured at 37° C. and 5% CO2. In an experiment in which the agent was added concurrently with infection, the agent to be examined was added to the maintenance culture solution at this point. (3) After 24 hours (Day 2), the culture solution was recovered from the plate and a fresh maintenance culture solution in a volume of 1 ml was added to the plate, and the cells were cultured at 37° C. and 5% CO2. In an experiment in which the agent was added after infection, the agent to be examined was added at predetermined time points after infection. The recovered culture solution was subjected to centrifugation at 3000 rpm for 5 minutes and the resulting supernatant was frozen and stored. […]
(1) One day before the experiment, Vero cells were inoculated in a 24-well plate and incubated at 37° C. and 5% CO2. […] The crystal violet solution was removed from the plate, and, after rinsing with water and drying, the number of plaques was counted. The viral titer in the culture solution was calculated based on the number of plaques. […]

The subject of series [3] is Zika virus PRVABC59 strain (ZKV). Description: Inhibitory effect on Zika virus replication in Vero cells. The series is classed as cell-based. The protocol:
(§1) (1) One day before infection (Day 0), Vero cells were seeded in a 24-well plate and incubated at 37° C. and 5% CO2. A culture solution was MEM+10% fetal bovine serum+10 mM non-essential amino acid+1000 U/ml penicillin+100 μg/ml streptomycin. In an experiment in which the treatment with the agent was performed before infection, the agent to be examined was added to the culture solution at this point. In all experiments, 5-aminolevulinic acid hydrochloride was used as 5-ALA, sodium ferrous citrate (SFC) was used as an iron-containing compound, 300 μM ribavirin or lucidone of various concentrations was used as a positive control, and water was used as a negative control. […] After the viruses were adsorbed to the cells for 1 hour, the cells were rinsed with phosphate-buffered saline (PBS) to completely remove the inoculation liquid. A maintenance culture solution (MEM+1% fetal bovine serum+10 mM non-essential amino acid+1000 U/ml penicillin+100 μg/ml streptomycin+1 mM HEPES) in a volume of 1 ml was added to the plate, and the cells were cultured at 37° C. and 5% CO2. In an experiment in which the agent was added concurrently with infection, the agent to be examined was added to the maintenance culture solution at this point. (3) After 24 hours (Day 2), the culture solution was recovered from the plate and a fresh maintenance culture solution in a volume of 1 ml was added to the plate, and the cells were cultured at 37° C. and 5% CO2. In an experiment in which the agent was added after infection, the agent to be examined was added at predetermined time points after infection. The recovered culture solution was subjected to centrifugation at 3000 rpm for 5 minutes and the resulting supernatant was frozen and stored. (4) Thereafter, recovering and supplying of the culture solution was repeated every 24 hours. It is of note that the infection experiments were performed using 2 wells for all conditions.
(§2) (1) One day before the experiment, Vero cells were inoculated in a 24-well plate and incubated at 37° C. and 5% CO2. (2) Samples for titer measurement were thawed and ten-fold serial dilutions of the samples were prepared using the maintenance culture solution. (3) The culture solution was removed from the plate thus prepared, and the serial dilutions prepared in procedure (2) were each inoculated in a volume of 200 μl. After adsorption for 1 hour, the inoculation liquid was removed from the plate, and 1% methyl cellulose (MEM+1% methyl cellulose+1% fetal bovine serum) in a volume of 1 ml was added to the plate. […] The crystal violet solution was removed from the plate, and, after rinsing with water and drying, the number of plaques was counted. The viral titer in the culture solution was calculated based on the number of plaques. […]

In series [4] the test system is Vero cells. The series can be described thus: MTT assay, cell toxicity in non-infected cells. It is filed as cell-based. The protocol:
(§3) (1) One day before the experiment, Vero cells were inoculated in a 96-well plate and incubated at 37° C. and 5% CO2. (2) Two-fold serial dilutions of 5-ALA were prepared (˜0.8 mM) using the maintenance culture solution (MEM+1% fetal bovine serum+10 mM non-essential amino acid+1000 U/ml penicillin+100 μg/ml streptomycin+1 mM HEPES). Water was used as a negative control. Two-fold serial dilutions of lucidone were also prepared (˜160 μM) in the same manner. (3) The culture solution was removed from the plate thus prepared, and the 5-ALA solution or the lucidone solution prepared in (2) was added to the plate in a volume of 100 μl per well. Three wells were used for each condition. (4) The old culture solution was removed from the plate every 24 hours, and the fresh 5-ALA solution or lucidone solution was added to the plate, followed by culturing. (5) The cells were cultured with the 5-ALA solution for 2, 4, or 7 days or with the lucidone solution for 7 days, and then rinsed with PBS twice. An MTT solution in a volume of 100 μl was added to the cells, and the cells were cultured at 37° C. and 5% CO2 for 3 hours. The MTT solution in use was prepared by dissolving thiazolyl blue tetrazolium bromide in a mixture containing equal volumes of 2×MEM and sterile water (10 mg/ml) and sterilizing the resulting mixture by filtration (prepared before use). (6) The culture solution was removed from the plate, and isopropyl alcohol in a volume of 100 μl was added to the plate, and the plate was subject to shaking at room temperature for about 5 minutes. (7) The absorbance at 570 nm was measured, and the relative absorbance was calculated as a percentage with respect to the absorbance in the well of 0 mM treatment.
Background: Formazan colour is commonly taken as a measure of viable cells.

The nature of series [5]: MTT assay, cell toxicity in non-infected cells. The series is classed as cell-based. As to conditions: African green monkey, Vero cells (non-infected); non-infected cells; treatment for 7 days; read-out: CC50 (concentration at which cell toxicity is caused to 50% of cells). The protocol: as §3
Series [6] relates to heme oxygenase-1 (HO-1). As to conditions: Non-Patent Literatures 11, 13, 14, 15; cited from earlier work.
Series [7] deals with dengue virus type-4 TVP360 strain (DENV4). Description: Inhibitory effect on dengue virus type-4 replication in Vero cells. It is filed as cell-based. The protocol:
as §1, §2

The subject of series [8] is dengue virus type-3 CH53489 strain (DENV3). The series can be described thus: Inhibitory effect on dengue virus type-3 replication in Vero cells. It is filed as cell-based. The protocol:
as §1, §2

Series [9] relates to Japanese encephalitis virus Nakayama strain (JEV Nakayama). Description: Inhibitory effect on Japanese encephalitis virus replication in Vero cells (progeny virus titer by plaque assay). The series is classed as cell-based.
The subject of series [10] is dengue virus. The note with it: Non-Patent Literatures 9 to 11; cited from earlier work.
Series [11] relates to Zika virus. As to conditions: Non-Patent Literatures 7 and 8, cited from earlier work.
The subject of series [12] is Japanese encephalitis virus. As to conditions: Non-Patent Literature 6; cited from earlier work.

Turning to `Cl.NCC(=O)CCC(=O)O` [5-ALA, 5-aminolevulinic acid hydrochloride], the “concentration required for causing the cell toxicity” value in series [1] (higher than 0.8 mM not examined) was “at least 0.8 mM”. Moreover, the “concentration at which anti-flavivirus activity is confirmed” value in series [1] (summary of Examples) is on record as at least 0.2 mM. Also, the “inhibitory effect on dengue virus type-1” value in series [2] (0.2 mM, treatment for 7 days after infection, FIG. 22) is listed as “exhibited up to Day 9”. For the same compound, the “inhibitory effect on dengue virus type-1 replication compared with ribavirin” value in series [2] (5-ALA 0.2 mM vs ribavirin 300 μM, FIG. 22) is listed as “stronger than the effect of ribavirin (300 μM)”. For the same compound, the “inhibitory effect on dengue virus type-1 when the agent was removed from the culture solution” value in [2] (after removal of the agent) is “lost with the lapse of time”. Also, in series [3] (0.2 mM, after Day 9), the “inhibitory effect after Day 9” value is given as “decreased”. Further, the “inhibitory effect on Zika virus” value in series [3] (0.2 mM, treatment for 7 days after infection, FIG. 25) was “exhibited up to Day 8”. In addition, the “inhibitory effect on Zika virus replication compared with ribavirin” value in series [3] (5-ALA 0.2 mM vs ribavirin 300 μM, FIG. 25) was “stronger than the effect of ribavirin (300 μM) on Day 5, Day 6, and Day 8”. The cell toxicity result in [4] (non-infected cells, 5-ALA solution for 2, 4 or 7 days, up to 0.8 mM, FIGS. 12-14) is listed as “observed in the non-infected cells in a dose-dependent manner”. Further, the CC50 at 7 days in [5] was over 800 µM. Besides, the “heme oxygenase-1 (HO-1) in cells” value in series [6] is reported as “induces expression of HO-1”. Further, the “inhibitory effect on dengue virus type-4 replication on Day 8” value in [7] (0.2 mM, Day 8) is recorded as “decreased”. Also, the “inhibitory effect on dengue virus type-4” value in series [7] (0.2 mM, treatment for 7 days after infection, FIG. 24) is listed as “exhibited up to Day 7”. In addition, the “inhibitory effect on dengue virus type-3 replication on Day 8” value in [8] (0.2 mM, Day 8) is “decreased”. Further, in series [8] (0.2 mM, treatment for 7 days after infection, FIG. 23), the “inhibitory effect on dengue virus type-3” value is listed as “exhibited up to Day 7”. For the same compound, the “inhibitory effect on dengue virus type-3 replication compared with ribavirin” value in series [8] (5-ALA 0.2 mM vs ribavirin 300 μM, FIG. 23) is reported as “stronger than the effect of ribavirin (300 μM)”. Further, the “inhibitory effect on Japanese encephalitis virus replication” value in series [9] (0.05 mM, treatment for 7 days after infection, FIG. 7) is “exhibited”; in series [9] (0.2 mM, treatment for 2 days after infection, FIG. 11), “exhibited”; in series [9] (0.2 mM, treatment for 4 days after infection, FIG. 10) it was “exhibited”; in [9] (0.2 mM, treatment for 7 days after infection, FIG. 7) it was “exhibited”. In addition, the “inhibitory effect on Japanese encephalitis virus replication, 5-ALA compared with low dose lucidone” value in series [9] (5-ALA 0.2 mM vs lucidone 10 μM and 2.5 μM, 7 days after infection, FIG. 20) is “stronger inhibitory effect on the Japanese encephalitis virus replication than 10 μM and 2.5 μM of lucidone”. Besides, the “inhibitory effect on Japanese encephalitis virus replication compared with ribavirin” value in series [9] (5-ALA 0.2 mM vs ribavirin 300 μM, 7 days after infection, FIG. 7) is given as “stronger than the effect of ribavirin (300 μM)”. For the same compound, the “duration of inhibitory effect on Japanese encephalitis virus after removal, compared with dengue virus” value in [9] (1 day treatment after infection, vs Example 4) is “lasted longer than in the case of the dengue virus”. In addition, the “inhibitory effect on Japanese encephalitis virus replication, treatment for 4 days and 2 days compared with 7 days” value in [9] (FIG. 7, FIG. 10, FIG. 11) is “less inhibitory effect”. In series [9] (after removal of the agent), the “inhibitory effect on Japanese encephalitis virus replication when the agent was removed from the culture solution” value is “lost with the lapse of time”. Besides, the “appearance of virus resistant to the agent” value in [9] (continuous treatment 7 days, compared with ribavirin, FIG. 7) is “delays the appearance of the virus resistant to the agent more than ribavirin”. For the same compound, in [9] (treatment after infection for 1 day (Day 2), 0.05 mM to 1 mM, FIG. 5), the “dose-dependent inhibitory effect on Japanese encephalitis virus replication” value is on record as “exhibited the dose-dependent inhibitory effect”.

As to `COC1=CC(=O)C(=C(O)/C=C/c2ccccc2)C1=O` [lucidone, reference compound], in series [1] (summary of Examples), the “concentration at which anti-flavivirus activity is confirmed” value turned out to be 0.04 mM and the “concentration at which cell toxicity is confirmed” value turned out to be 40 µM. Besides, in series [4] (cells not infected with the flavivirus, 40 μM, 7 days), the “cell toxicity at 40 μM” value was “did not cause the cell toxicity”. The cell toxicity result in series [4] (non-infected cells, lucidone for 7 days, up to 160 μM, FIG. 15) is “observed in a dose-dependent manner”. Also, the CC50 in series [4] (non-infected cells, treatment for 7 days, read-out: CC50 (concentration at which cell toxicity is caused to 50% of cells)) was over 60 µM. Also, the “heme oxygenase-1 (HO-1) in cells” value in series [6] is “increases HO-1 in cells”. Besides, the “inhibitory effect on Japanese encephalitis virus replication, lucidone compared with 5-ALA” value in [9] (lucidone 40 μM vs 5-ALA 0.2 mM, 7 days after infection, FIG. 17) was “stronger inhibitory effect on the Japanese encephalitis virus replication than 0.2 mM 5-ALA”. The “replication of dengue virus” value in [10] is “suppress replication”.

With `O=C(Nc1ccc([N+](=O)[O-])cc1Cl)c1cc(Cl)ccc1O` [niclosamide], the “replication of Zika virus” value in series [11] is “suppress replication”.

As to `CC(=O)Oc1ccccc1C(=O)Nc1ncc([N+](=O)[O-])s1` [nitazoxanide], the “replication of Japanese encephalitis virus” value in series [12] is “suppress replication”.

On to `NC(=O)c1ncn([C@@H]2O[C@H](CO)[C@@H](O)[C@H]2O)n1` [ribavirin, reference compound], for which the “inhibitory effect on Zika virus replication under continuous treatment” value in series [3] (ribavirin 300 μM) was “reduction in the inhibitory effect”. Besides, in series [7] (ribavirin 300 μM), the “inhibitory effect on dengue virus type-4 replication under continuous treatment” value was “reduction in the inhibitory effect”. Moreover, the “inhibitory effect on dengue virus type-4 replication, ribavirin compared with 5-ALA” value in series [7] (ribavirin 300 μM vs 5-ALA 0.2 mM, FIG. 24) is given as “stronger than the inhibitory effect on the dengue virus replication by treatment with 5-ALA (0.2 mM)”. The “inhibitory effect on dengue virus type-3 replication under continuous treatment” value in series [8] (ribavirin 300 μM, from Day 7) was “reduction in the inhibitory effect”. In addition, in series [10], the “replication of dengue virus” value was “suppress replication”.

As to Hemin, the “replication of Zika virus” value is recorded as “suppress replication of Zika virus in vitro” in series [11] and “reduces replication of Zika virus in vitro” in [11] (listed as hemin).
